Reference: patent publication US20040019068A1, “Novel remedies or preventives for angiostenosis” (priority 2000, published 2004)

What was measured:
chymase = molecular target: T1, chymase (Canis lupus familiaris, UniProt P21842); test: Chymase activity measurement in implanted blood vessel, dog bypass graft model; type: in vivo, dog (beagle); conditions: implanted blood vessel 28 days after bypass grafting; 5 mg/kg orally once a day in capsules for 33 days; angiotensin I substrate
T1 construct: An isolated blood vessel was combined with a 10-fold volume (w/v) of a 20 mM sodium phosphate buffer solution (pH7.4); from tissue; host or cells: implanted jugular vein graft of beagle dogs (homogenate, high-salt/detergent extract supernatant)
T1 sequence (P21842 22-249): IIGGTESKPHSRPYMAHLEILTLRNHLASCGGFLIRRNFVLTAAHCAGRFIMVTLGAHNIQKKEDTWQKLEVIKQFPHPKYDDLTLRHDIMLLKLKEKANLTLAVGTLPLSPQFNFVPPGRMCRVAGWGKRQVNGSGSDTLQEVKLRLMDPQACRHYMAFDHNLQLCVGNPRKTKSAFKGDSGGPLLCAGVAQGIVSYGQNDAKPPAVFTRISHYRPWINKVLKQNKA
Method: (A) Bypass Graft Model Preparation
(§1) 10 Male adult beagles (8 to 10 kg) purchased from NIPPON SLC were anesthetized with an intravenous administration of pentobarbital sodium at 35 mg/kg per animal. The cervical position was incised, and a right jugular vein was isolated and implanted into the carotid artery on the same side (J.Hum.Hypertens., 12 (suppl.1), S21(1999)). After implantation, the incision was sutured and the animal was raised as usual after coming out from the anesthetic.
(§2) 2 Groups each including 5 dogs, which had been subjected to the bypass grafting, were provided as the treatment group and the non-treatment group. In the treatment group, 2-(5-formylamino-6-oxo-2-phenyl-1,6-dihydropyrimidin-1-yl)-N-[2,3-dioxo-1-phenylmethyl-6-(2-pyridyloxy)]hexylacetamide (No. 10) was orally administered at a dose of 5 mg/kg once a day in capsules every day over a period of 33 days in total from 5 days before the bypass grafting through the day of the blood vessel sampling.
28 Days after the bypass grafting, 35 mg/kg of pentobarbital sodium was given intravenously to anesthetize. […]
The chymase activity was measured using angiotensin I as a substrate. […] Immediately after completion of the reaction, angiotensin II produced was quantified using a high performance liquid chromatography, and the chymase activity of the tissue was calculated.

[1] = rat, in vivo, po, 100 mg/kg
From the text: A compound employed in the invention has a low toxicity, and any compound undergoes a characteristically low accumulation of the toxicity when given continuously. […] In addition, another characteristic advantage is the possibility of giving orally as a therapeutic or prophylactic agent for an angiostenosis.

[2] = test system: implanted blood vessel (jugular vein implanted into the carotid artery); test: Restenosis test in dog bypass graft model; type: in vivo, dog (beagle); conditions: implanted blood vessel 28 days after bypass grafting, 5 mg/kg orally once a day for 33 days
Method: as §1, §2
28 Days after the bypass grafting, 35 mg/kg of pentobarbital sodium was given intravenously to anesthetize. The implanted vein and the jugular vein on the other side were isolated, and each was cut at the center. […]
Based on the areas obtained in (D) described above and using the following equation, a vascular stenosis ratio of each individual animal was calculated. […]

[3] = test system: balloon-injured right carotid artery; test: Restenosis test in dog carotid artery balloon injury model; type: in vivo, dog (beagle); conditions: 28 days after balloon injury
Method: 21 Male adult beagles (9.4 to 11.4 kg) purchased from NIPPON NOSAN KOGYO were anesthetized with an intravenous administration of pentobarbital sodium at 30 mg/kg per animal. After immobilizing each animal in the spine position, the cervical part was incised and the right and left carotid arteries were exposed. After intravenous administration of 1000 U of heparin sodium, the right carotid artery branch was incised and the tip of a balloon catheter (Baxter 4 Fr, 40 cm) was inserted from the carotid artery to the aortic arch. With the balloon being inflated with application of pressure, the catheter was drawn out to injure the intima of the blood vessel. This procedure was repeated 5 times, and the balloon catheter was taken out, and the incision in the blood vessel was ligated. After suturing the skin incision, 1000 U of heparin sodium and 100 mg of ampicillin sodium were administered intramuscularly for the postoperative maintenance.
3 Groups each including 7 balloon-injured dogs were divided as the high dose treatment group, low dose treatment group and non-treatment group. 2-(5-Formylamino-6-oxo-2-phenyl-1,6-dihydropyrimidin-1-yl)-N-[2,3-dioxo-1-phenylmethyl-6-(2-pyridyloxy)]hexylacetamide (No. 10) was given at a dose of 1 mg/kg in the high dose treatment group and at 0.2 mg/kg in the low dose treatment group once a day in capsules every day over a period of 33 days in total from 5 days before the balloon injury through the day of the blood vessel sampling. In the non-treatment group, vacant capsules were given every day. In all groups, 50 ml or more of a tap water was given forcibly after administration.
Twenty eight (28) days after the balloon injury, 30 mg/kg of pentobarbital sodium was given intravenously to anesthetize. After exsanguination, the right carotid artery as an injured position was isolated, and cut into 3 pieces. About 5 mm was cut out of each of the sections which were distal, proximal and center with regard to the heart. The left carotid artery was also isolated as a non-injury position, from the center of which about 5 mm was cut off, and each was fixed in 10% formalin neutral buffer solution.
Each vascular tissue embedded in a paraffin was shaved into sections, and subjected to a Hematoxylin-Eoshin staining. The intraluminal area, the area inside the intima and the area inside the media were measured using Olympus Image Analyzer Model VM-30.
Based on the areas obtained in (D) described above and using the following equation, a vascular stenosis ratio and a vascular lumen ratio of each position were calculated, and the mean of the three positions was regarded as the value of each individual animal. In the equation, A is an area inside the intima, B is an intraluminal area and C is an area inside the media. […]

[4] = clinical tests in Japan (RINSHO IYAKU, 12(1), 65 (1996)); cited from earlier work
[5] = High dose 1 mg/kg once a day in capsules for 33 days, p<0.05 vs non-treatment

SMILES	Chymase activity (chymase) [mU/mg protein]	toxicological change [1]	intima area [2] [mm2]	Vascular stenosis ratio ([2]; [(A-B)/(C-A)]x100) [%]	Vascular lumen ratio [3, 5] [%]	Vascular stenosis ratio [3, 5] [%]	Vascular stenosis ratio ([3]; Low dose 0.2 mg/kg once a day in capsules for 33 days) [%]	Vascular lumen ratio ([3]; Low dose 0.2 mg/kg once a day in capsules for 33 days, B/Cx100) [%]	side effect in clinical tests [4]
O=CNc1cnc(-c2ccccc2)n(CC(=O)NC(Cc2ccccc2)C(=O)C(=O)CCCOc2ccccn2)c1=O (stereo not drawn) [Compound No. 10, 2-(5-formylamino-6-oxo-2-phenyl-1,6-dihydropyrimidin-1-yl)-N-[2,3-dioxo-1-phenylmethyl-6-(2-pyridyloxy)]hexylacetamide]	4.88 ± 0.53	no toxicological change	1.78 ± 0.12	30.9 ± 8.8	41.6 ± 1.1	10.5 ± 1.8	13.6 ± 2.0	38.4 ± 2.0	
COc1ccc(/C=C/C(=O)Nc2ccccc2C(=O)O)cc1OC [tranilast]									hepatic dysfunction as a highly frequent side effect
